The target in one assay is T1, Adenosine A-1 receptor (Rattus norvegicus, UniProt P25099).
T1 construct: the membranes are isolated from whole animal brains; from tissue; host or cells: whole brain membranes of male Sprague-Dawley rats
T1 sequence (P25099 1-326): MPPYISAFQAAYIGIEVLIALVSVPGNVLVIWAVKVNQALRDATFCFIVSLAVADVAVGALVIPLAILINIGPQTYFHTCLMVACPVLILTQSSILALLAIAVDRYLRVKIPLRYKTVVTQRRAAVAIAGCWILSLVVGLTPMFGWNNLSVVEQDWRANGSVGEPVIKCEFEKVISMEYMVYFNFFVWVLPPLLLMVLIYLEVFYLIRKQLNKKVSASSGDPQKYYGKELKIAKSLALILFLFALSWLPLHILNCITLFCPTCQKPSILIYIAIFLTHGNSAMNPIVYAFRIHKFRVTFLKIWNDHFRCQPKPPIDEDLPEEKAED
Put plainly: Test for affinity for brain adenosine A-1 receptor binding sites ([3H]cyclohexyladenosine competition). The note with it: rat brain membranes, [3H]cyclohexyladenosine 0.8 nM. An excerpt: The test described below is used to determine the potency of test compounds to compete with the ligand […] for he Adenosine A-1 receptor prepared from rat brain membranes. Male Sprague-Dawley rats are sacrificed by decapitation and the membranes are isolated from whole animal brains. (See R. Goodman, M. Cooper. M. Gavish, and S. Synder, Guanine Nucleotide and Cation Regulation of the Binding of [3H]Diethylphenylxanthine to Adenosine A-1 Receptors in Brain Membrane, Molecular Pharmacology, 21, 329-335 (1982).
Membranes are homogenized (using polytron setting 7 for 10 seconds) in 25 volumes of ice-cold 50 mM Tris-HCl buffer, pH 7.7. […]
The incubation tubes, in triplicate, receive 100 µl of [3H]cyclohexyladenosine, 0.8 nM in the assay, 200 µl of test compounds at various concentrations over the range of 10^-10 M to 10^-6 M diluted with […] Tris-HCl buffer (pH 7.7), 0.2 ml of membrane suspension (8 mg wet weight) and in a final volume of 2 ml with Tris buffer. […] The filters are counted by liquid scintillation spectrometry in 8 ml of Omniflour containing 5% Protosol.
Specific binding of [3H]cyclohexyladenosine is measured as the excess over blanks taken in the presence of 10^-5 M 2-chloroadenosine. Total membrane-bound radioactivity is about 5% of that added to the test tubes. […] Protein content of the membrane suspension is determined by the method of Lowry, et al., Ibid, 265. […]

The target of another assay is T2, adenosine A-2 receptors (Rattus norvegicus, UniProt P30543).
T2 construct: from tissue; host or cells: striatal membranes of young male C-D rats (Charles River)
Put plainly: Test for affinity for brain adenosine A-2 receptors ([3H]NECA competition, striatal membranes). The note with it: for Ki: rat brain striatum membranes, [3H]NECA, read-out: A-2 Receptor Ki; for A-1 Ki/A-2 Ki: ratio of A-1 Ki to A-2 Ki (selectivity). Type of assay: binding. An excerpt: The test described below was used to determine the potency of test compounds to compete with the ligand [3H]-5'-N-ethyl-carboxamidoadenosine (NECA) for the adenosine A-2 receptors prepared from animal brain membranes. (See also R.R. Bruns, G.H. Lu, and T.A. […] Pharmacol., 29, 331-346 (1986).) Young male rats (C-D strain), obtained from Charles River, are killed by decapitation and the brains are removed. Membranes for ligand binding are isolated from rat brain striatum. The tissue is homogenized in 20 vol ice-cold 50 mM Tris-HCl buffer (pH 7.7) using a polytron (setting for 6 to 20 seconds). The homogenate is centrifuged at 50,000 x g for 10 minutes at 4°C. The pellet is again homogenized in a polytron in 20 vol of buffer, and centrifuged as before. The pellet is finally resuspended in 40 vol of 50 mM Tris-HCl (pH 7.7) per gram of original wet weight of tissue. […] Incubations are carried out at 25°C for 60 minutes. Each tube is filtered through GF/B glass fiber filters using a vacuum. The filters are rinsed two times with 5 ml of the ice-cold buffer. The membranes on the filters are transferred to scintillation vials to which 8 ml of Omnifluor with 5% Protosol is added. The filters are counted by liquid scintillation spectrometry. Specific binding of [3H]NECA is measured as the excess over blanks run in the presence of 100 µM 2-chloroadenosine. Total membrane-bound radioactivity is about 2.5% of that added to the test tubes. […] Specific binding to membranes is about 50% of the total bound. Protein content of the membrane suspension is determined by the method of O.H. Lowry, N.J. Rosebrough, A.L. Farr and R.J. Randall, Protein Measurements With Folin Phenol Reagent, J. Biol. Chem., 193, 265-275 (1951).

In the next assay the target is A-2 receptor. The settings on record: rat brain slice assay; cited from earlier work.

A word on the Ki: it is the equilibrium dissociation constant of an inhibitor or competing ligand from its target.

T2 sequence (P30543 whole entry): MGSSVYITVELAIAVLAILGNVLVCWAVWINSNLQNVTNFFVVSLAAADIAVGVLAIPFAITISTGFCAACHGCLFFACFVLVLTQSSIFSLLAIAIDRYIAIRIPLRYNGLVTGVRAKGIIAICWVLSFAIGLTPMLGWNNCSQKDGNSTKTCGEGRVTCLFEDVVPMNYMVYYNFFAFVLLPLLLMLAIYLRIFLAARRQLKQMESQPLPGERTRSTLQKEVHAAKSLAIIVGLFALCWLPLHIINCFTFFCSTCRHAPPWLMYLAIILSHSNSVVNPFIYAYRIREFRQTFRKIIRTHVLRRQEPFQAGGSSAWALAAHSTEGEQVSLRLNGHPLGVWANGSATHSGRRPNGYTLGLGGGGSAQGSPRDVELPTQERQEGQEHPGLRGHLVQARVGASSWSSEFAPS

For the compound `C[C@H](Cc1ccccc1)Nc1nc(N)c2ncn([C@@H]3O[C@H](CO)[C@@H](O)[C@H]3O)c2n1` [Compound 1, (R)-2-[(phenylisopropyl)amino]adenosine], at Adenosine A-1 receptor, affinity was put at a Ki of 8400 nM. Further, on adenosine A-2 receptors, the Ki was 3.5 nM and the “A-1 Ki/A-2 Ki” value came to 2400.

`C[C@@H](Cc1ccccc1)Nc1nc(N)c2ncn([C@@H]3O[C@H](CO)[C@@H](O)[C@H]3O)c2n1` [Compound 2, (S)-2-[(phenylisopropyl)amino]adenosine]: the inhibition constant Ki at Adenosine A-1 receptor was determined as 5800 nM; at adenosine A-2 receptors, 158 nM. Further, the “A-1 Ki/A-2 Ki” value on adenosine A-2 receptors is listed as 37.

With `CCCn1c(=O)c2[nH]c(-c3ccc(OCC(=O)O)cc3)nc2n(CCC)c1=O` [XCC, carboxylic acid congener of 8-phenyl-1,3-dipropylxanthine], the Ki on A-2 receptor was 34 ± 13 nM.

The record behind these values is patent publication EP0662975B1, “2-SUBSTITUTED ADENOSINES WITH A-2 RECEPTOR AFFINITY” (priority 1992, dated 1994).
